In patent publication US8940731B2, “Substituted pyridyl amide compounds as modulators of the histamine H3 receptor” (Janssen Pharmaceutica NV, priority 2006, dated 2015):
Structures can show the parent of a compound that is named as a salt. Where two headings read alike, the source gives them in different places.

Molecular target: T1, cloned human H3 receptors (Homo sapiens, UniProt Q9Y5N1)
T1 construct: expressed in transfected cells
Assay: H3 Receptor Binding (Human)
Protocol: H3 Receptor Binding (Human)
Binding of compounds to the cloned human H3 receptors, stably expressed in SK-N-MC cells, was performed as described by Barbier, A. J. et al. (Br. J. Pharmacol. 2004, 143(5), 649-661).

[1] = cloned human H3 receptors stably expressed in SK-N-MC cells, average of the results obtained, read-out: Human H3 Ki
[2] = bromo-pyridine intermediates (Step A), value given in the synthesis, read-out: Assay 1 (Human H3): Ki

T1 sequence (Q9Y5N1 whole entry): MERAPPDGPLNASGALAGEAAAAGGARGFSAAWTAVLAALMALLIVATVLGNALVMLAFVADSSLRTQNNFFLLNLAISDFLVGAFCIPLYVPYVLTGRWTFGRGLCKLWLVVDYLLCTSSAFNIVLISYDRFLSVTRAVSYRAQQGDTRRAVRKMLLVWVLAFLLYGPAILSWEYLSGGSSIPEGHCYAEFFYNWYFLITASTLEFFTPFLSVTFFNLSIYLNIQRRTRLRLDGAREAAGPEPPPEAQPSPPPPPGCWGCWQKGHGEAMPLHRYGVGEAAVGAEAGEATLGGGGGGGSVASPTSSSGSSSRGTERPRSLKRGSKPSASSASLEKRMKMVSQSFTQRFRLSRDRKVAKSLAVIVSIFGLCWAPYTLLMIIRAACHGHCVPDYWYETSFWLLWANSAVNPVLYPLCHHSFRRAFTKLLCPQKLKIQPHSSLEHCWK

| SMILES | Ki [1] [nM] | Ki [2] [nM] |
| --- | --- | --- |
| CSc1ccc(Oc2ccc(C(=O)N3CCN(C(C)C)CC3)cn2)cc1C [Example 101, (4-Isopropyl-piperazin-1-yl)-[6-(3-methyl-4-methylsulfanyl-phenoxy)-pyridin-3-yl]-methanone] | 59 |  |
| O=C(c1ccc(Oc2ccc(Cl)cc2)nc1)N1CCN(C2CCCC2)CC1 [Example 77, [6-(4-Chloro-phenoxy)-Pyridin-3-yl]-(4-cyclopentyl-piperazin-1-yl)-methanone] | 22 |  |
| O=C(c1ccc(Br)cn1)N1CCCN(C2CC2)CC1 [(5-Bromo-pyridin-2-yl)-(4-cyclopropyl-[1,4]diazepan-1-yl)-methanone] |  | 115 |
| O=C(c1ccc(Oc2ccccc2F)nc1)N1CCN(C2CCCC2)CC1 [Example 78] | 24 |  |
| Cc1cc(Oc2cccc(C(=O)N3CCCN(C4CCC4)CC3)n2)ccc1Cl [Example 48, [6-(4-Chloro-3-methyl-phenoxy)-pyridin-2-yl]-(4-cyclobutyl-[1,4]diazepan-1-yl)-methanone trifluoroacetic acid salt] | 67 |  |
| CC(C)N1CCN(C(=O)c2ccc(Oc3cccc(C#N)c3)nc2)CC1 [Example 7, 3-[5-(4-Isopropyl-piperazine-1-carbonyl)-pyridin-2-yloxy]-benzonitrile] | 57 |  |
| CC(C)N1CCN(C(=O)c2ccc(Oc3ccc(Cl)c(Cl)c3)c(CN)n2)CC1 [Example 64, [6-Aminomethyl-5-(3,4-dichloro-phenoxy)-pyridin-2-yl]-(4-isopropyl-piperazin-1-yl)-methanone trifluoroacetic acid salt] | 165 |  |
| CC(C)N1CCCN(C(=O)c2ccc(Br)cn2)CC1 [(5-Bromo-pyridin-2-yl)-(4-isopropyl-[1,4]diazepan-1-yl)-methanone] |  | 194 |
| CC(C)N1CCN(C(=O)c2ccc(Oc3cccnc3)nc2)CC1 [Example 2, (4-Isopropyl-piperazin-1-yl)-[6-(pyridin-3-yloxy)-pyridin-3-yl]-methanone] | 56 |  |
| O=C(c1cccc(Br)n1)N1CCCN(C2CC2)CC1 [(6-Bromo-pyridin-2-yl)-(4-cyclopropyl-[1,4]diazepan-1-yl)-methanone] |  | 431 |
| CC(C)N1CCN(C(=O)c2ccc(Oc3ccc(F)cc3)nc2)CC1 [Example 99, [6-(4-Fluoro-phenoxy)-pyridin-3-yl]-(4-isopropyl-piperazin-1-yl)-methanone] | 28 |  |
| O=C(c1cccc(Oc2ccc(Cl)c(Cl)c2)n1)N1CCCN(C2CCC2)CC1 [Example 45, (4-Cyclobutyl-[1,4]diazepan-1-yl)-[6-(3,4-dichloro-phenoxy)-pyridin-2-yl]-methanone] | 34 |  |
| CC(C)N1CCCN(C(=O)c2cccc(Oc3ccc(Cl)c(Cl)c3)n2)CC1 [Example 46, [6-(3,4-Dichloro-phenoxy)-pyridin-2-yl]-(4-isopropyl-[1,4]diazepan-1-yl)-methanone] | 202 |  |
| CSc1ccc(Oc2ccc(C(=O)N3CCCN(C4CC4)CC3)nc2C#N)cc1 [Example 55, 6-(4-Cyclopropyl-[1,4]diazepane-1-carbonyl)-3-(4-methylsulfanyl-phenoxy)-pyridine-2-carbonitrile] | 21 |  |
| CC(C)N1CCN(C(=O)c2ccc(Oc3cccc(Cl)c3)nc2)CC1 [Example 4, [6-(3-Chloro-phenoxy)-pyridin-3-yl]-(4-isopropyl-piperazin-1-yl)-methanone] | 56 |  |
| N#Cc1nc(C(=O)N2CCCN(C3CC3)CC2)ccc1Oc1cccc(F)c1 [Example 60, 6-(4-Cyclopropyl-[1,4]diazepane-1-carbonyl)-3-(3-fluoro-phenoxy)-pyridine-2-carbonitrile] | 29 |  |
| CC(C)N1CCN(C(=O)c2cccc(Br)n2)CC1 [(6-Bromo-pyridin-2-yl)-(4-isopropyl-piperazin-1-yl)-methanone] |  | 1400 |
| CC(C)N1CCCN(C(=O)c2cccc(Br)n2)CC1 [(6-Bromo-pyridin-2-yl)-(4-isopropyl-[1,4]diazepan-1-yl)-methanone] |  | 752 |
| CSc1ccc(Oc2ccc(C(=O)N3CCN(C(C)C)CC3)cn2)cc1 [Example 3, (4-Isopropyl-piperazin-1-yl)-[6-(4-methylsulfanyl-phenoxy)-pyridin-3-yl]-methanone] | 66 |  |
| O=C(c1ccc(Br)cn1)N1CCCN(C2CCC2)CC1 [(5-Bromo-pyridin-2-yl)-(4-cyclobutyl-[1,4]diazepan-1-yl)-methanone] |  | 11 |
| CC(C)N1CCN(C(=O)c2ccc(Oc3ccc(Cl)c(Cl)c3)c(C#N)n2)CC1 [Example 53, 3-(3,4-Dichloro-phenoxy)-6-(4-isopropyl-piperazine-1-carbonyl)-pyridine-2-carbonitrile trifluoroacetic acid salt] | 49 |  |
| NC(=O)c1nc(C(=O)N2CCCN(C3CC3)CC2)ccc1Oc1cccnc1 [Example 63, 6-(4-Cyclopropyl-[1,4]diazepane-1-carbonyl)-3-(pyridin-3-yloxy)-pyridine-2-carboxylic acid amide] | 32 |  |
| CC(C)N1CCN(C(=O)c2cccc(Oc3ccc(Cl)c(Cl)c3)n2)CC1 [Example 43, [6-(3,4-Dichloro-phenoxy)-pyridin-2-yl]-(4-isopropyl-piperazin-1-yl)-methanone] | 299 |  |
| Cc1cc(Oc2cccc(C(=O)N3CCCN(C4CC4)CC3)n2)ccc1Cl [Example 47, [6-(4-Chloro-3-methyl-phenoxy)-pyridin-2-yl]-(4-cyclopropyl-[1,4]diazepan-1-yl)-methanone trifluoroacetic acid salt] | 357 |  |
| Cc1cc(Oc2cccc(C(=O)N3CCCN(C(C)C)CC3)n2)ccc1Cl [Example 49, [6-(4-Chloro-3-methyl-phenoxy)-Pyridin-2-yl]-(4-isopropyl-[1,4]diazepan-1-yl)-methanone trifluoroacetic acid salt] | 115 |  |
| Cc1cc(Oc2ccc(C(=O)N3CCN(C(C)C)CC3)cn2)ccc1Cl [Example 6, [6-(4-Chloro-3-methyl-phenoxy)-pyridin-3-yl]-(4-isopropyl-piperazin-1-yl)-methanone] | 32 |  |
| CC(C)N1CCN(C(=O)c2ccc(Oc3ccc(Cl)c(Cl)c3)nc2)CC1 [Example 1, [6-(3,4-Dichloro-phenoxy)-pyridin-3-yl]-(4-isopropyl-piperazin-1-yl)-methanone] | 29 |  |
| CSc1ccc(Oc2ccc(C(=O)N3CCCN(C4CC4)CC3)nc2C(N)=O)cc1 [Example 62, 6-(4-Cyclopropyl-[1,4]diazepane-1-carbonyl)-3-(4-methylsulfanyl-phenoxy)-pyridine-2-carboxylic acid amide] | 36 |  |

Continued, in another order:

| Ki [1] [nM] | SMILES | Ki [2] [nM] |
| --- | --- | --- |
| 10 | O=C(c1ccc(Oc2ccc(Cl)cc2)nc1)N1CCCN(C2CC2)CC1 [Example 10, [6-(4-Chloro-phenoxy)-pyridin-3-yl]-(4-cyclopropyl-[1,4]diazepan-1-yl)-methanone] |  |
| 18 | CC(C)N1CCCN(C(=O)c2ccc(Oc3ccc(Cl)c(Cl)c3)cn2)CC1 [Example 50, [5-(3,4-Dichloro-phenoxy)-pyridin-2-yl]-(4-isopropyl-[1,4]diazepan-1-yl)-methanone trifluoroacetic acid salt] |  |
| 2 | O=C(c1ccc(Oc2ccccc2F)cn1)N1CCCN(C2CCC2)CC1 [Example 72, (4-Cyclobutyl-[1,4]diazepan-1-yl)-[5-(2-fluoro-phenoxy)-pyridin-2-yl]-methanone] |  |
| 3 | N#Cc1nc(C(=O)N2CCCN(C3CC3)CC2)ccc1Oc1ccccc1 [Example 81, 6-(4-Cyclopropyl-[1,4]diazepane-1-carbonyl)-3-phenoxy-pyridine-2-carbonitrile] |  |
| 2 | O=C(c1ccc(Oc2ccc(F)cc2)cn1)N1CCCN(C2CCC2)CC1 [Example 69, (4-Cyclobutyl-[1,4]diazepan-1-yl)-[5-(4-fluoro-phenoxy)-pyridin-2-yl]-methanone trifluoroacetic acid salt] |  |
| 19 | CCN1CCCN(C(=O)c2ccc(Oc3ccc(F)cc3)nc2)CC1 [Example 98, (4-Ethyl-[1,4]diazepan-1-yl)-[6-(4-fluoro-phenoxy)-pyridin-3-yl]-methanone] |  |
| 12 | CSc1ccc(Oc2ccc(C(=O)N3CCCN(C(C)C)CC3)cn2)cc1C [Example 42, (4-Isopropyl-[1,4]diazepan-1-yl)-[6-(3-methyl-4-methylsulfanyl-phenoxy)-pyridin-3-yl]-methanone] |  |
| 3 | O=C(c1ccc(Oc2cc(Cl)cc(Cl)c2)nc1)N1CCCN(C2CC2)CC1 [Example 35, (4-Cyclopropyl-[1,4]diazepan-1-yl)-[6-(3,5-dichloro-phenoxy)-pyridin-3-yl]-methanone] |  |
| 2 | Cc1cc(Oc2ccc(C(=O)N3CCCN(C4CCC4)CC3)cn2)ccc1Cl [Example 16, [6-(4-Chloro-3-methyl-phenoxy)-pyridin-3-yl]-(4-cyclobutyl-[1,4]diazepan-1-yl)-methanone] |  |
| 5 | Cc1cc(Oc2ccc(C(=O)N3CCCN(C(C)C)CC3)cn2)ccc1Cl [Example 17, [6-(4-Chloro-3-methyl-phenoxy)-pyridin-3-yl]-(4-isopropyl-[1,4]diazepan-1-yl)-methanone] |  |
| 1 | O=C(c1ccc(Sc2ccc(F)cc2)nc1)N1CCCN(C2CCC2)CC1 [Example 97, (4-Cyclobutyl-[1,4]diazepan-1-yl)-[6-(4-fluoro-phenylsulfanyl)-pyridin-3-yl]-methanone] |  |
| 19 | O=C(c1ccc(Oc2ccccc2Cl)nc1)N1CCN(C2CCCC2)CC1 [Example 76, [6-(2-Chloro-phenoxy)-Pyridin-3-yl]-(4-cyclopentyl-piperazin-1-yl)-methanone] |  |
| 10 | N#Cc1nc(C(=O)N2CCCN(C3CC3)CC2)ccc1Oc1ccc(Cl)c(Cl)c1 [Example 58, 6-(4-Cyclopropyl-[1,4]diazepane-1-carbonyl)-3-(3,4-dichloro-phenoxy)-pyridine-2-carbonitrile] |  |
| 13 | CC(C)N1CCN(C(=O)c2ccc(Oc3ccc(F)c(F)c3)nc2)CC1 [Example 28, [6-(3,4-Difluoro-phenoxy)-pyridin-3-yl]-(4-isopropyl-piperazin-1-yl)-methanone] |  |
